# Measured values taken from patent US3972991A, “Radioisotopic assay and binder therefor” (priority 1974, dated 1976).
# Counter-ions that a name gives are not always drawn.
# Tests used:
# hog kidney folate binder = assay: direct competition for PGA binding sites in hog kidney folate binder (FIG. 6A)
# Experimental: The reaction was started by addition of folate binder and allowed to proceed for 30 minutes at room temperature in the dark. The reaction was stopped by placing the tubes on ice and adding 1.0 ml of a suspension of powdered activated charcoal coated with albumin. After 2 to 3 minutes on ice, the tubes were centrifuged at 6000 × G for 10 minutes at 4°C to remove the charcoal absorbed "free" folate. 1.0 ml of the clear supernatant fluid which contained the folate/binder complex was counted by liquid scintillation spectroscopy according to known procedures. Charcoal controls prepared by substituting buffer for binder in one series of tubes were prepared to determine the number of counts not removed by the charcoal. Percent maximum binding was calculated by the formula [formula]
# hog kidney binder factor [1] = assay: effect of enzymes, pH, ions, chelators, denaturants and other agents on binding of 3H-PGA to hog kidney binder; details: for effect on binding activity of the binder composition: before complex formation
# hog kidney binder = assay: direct binding studies with labeled folates on hog kidney binder
# hog kidney binder factor [2] = assay: sequential addition of unlabeled folate derivatives and 3H-PGA, displacement (FIG. 6B); format: binding; details: PGA curve of FIG. 6B
# Experimental: The binding conditions were similar to those used in obtaining the data appearing in FIG. 6A except that 3 pmoles of ^3 H-PGA was added to the reaction containing enough binder factor to bind about 2.5 pmoles of PGA. The binder was preincubated for 30 minutes in the dark at room temperature with unlabeled folate derivatives as indicated. Then the ^3 H-PGA was added and the reaction allowed to continue for an additional 30 minutes and then stopped and counted as in obtaining the data for FIG. 6A.
# The calculated curve of FIG. 6B depicts the relationship to be expected by balancing on a molar basis the binding capacity of the hog kidney binder factor with the known pmoles of folate analog added in the absence of any displacement. […] The hog kidney binder factor thus differs from other high affinity folate binder factors such as those found in milk and in serum and in leukocytes of some patients with chronic granulocytic leukemia.
# storage stability = format: physicochemical
# Experimental: The standard or known folate (d,1,L-5-methyltetrahydrofolic acid) (Sigma Chemical) is dissolved in 0.05 M potassium phosphate buffer pH 7.6 and then brought to 0.1 M with 2-mercapto-ethanol. Here the mercapto-alcohol acts as a stabilizer for the folate or folic acid.
# High specific activity ^3 H-PGA (15-50 Ci/m mole; Amersham Searle) is conveniently utilized as the tracer or labeled compound. It is dissolved in 20% ethanol and stored at -80°C. For use in the assay, the stock solution is diluted 1:100 in potassium phosphate buffer (0.05 M pH 7.6).
# Finely divided activated charcoal coated with albumin is prepared by mixing equal volumes of a 5% powdered activated charcoal (Norit A) suspension (w/v, in distilled water) and a 1% aqueous solution of bovine albumin (Fraction V of Cohn).
# Blood to be assayed for folate is obtained by venapuncture and allowed to clot at room temperature. The serum is collected by centrifugation and 5 milligrams of ascorbic acid per milliliter of serum is added.
# hog kidney binder factor [3] = assay: rate of PGA binder complex formation and dissociation; format: binding; details: for initial rate of binding: 3H-PGA approximately 20% excess
# Experimental: The rate of PGA binder complex formation with hog kidney binder factor was determined at several temperatures by equilibrating solutions of the binder and of ^3 H-PGA at the appropriate temperature and then combining aliquots of each such that the ^3 H-PGA was in approximately 20% excess to the binding capacity of the hot kidney binder factor composition. The reaction was terminated by the addition of 1.0 ml of ice cold suspension of powdered activated charcoal coated with albumin.
# All other binder factors = assay: inactivation of other binder factors by trypsin; format: binding; details: trypsin solution 1:250, 1 mg/ml
# Experimental: Preincubating a 1.0 ml aliquot of binder extract from hog kidney having a binding capacity of 25 ng PGA/ml, with 1.0 ml RNase (Worthington, 2 micrograms per ml) or with DNase I (Worthington 2 micrograms per ml) for 30 minutes at 37°C had no effect on the binding of ^3 H-PGA. […] All other binder factors are inactivated by a trypsin solution 1:250, 1 mg/ml.
molecule,measurement,setting,value
"Nc1nc2c(c(=O)[nH]1)NC(CNc1ccc(C(=O)N[C@@H](CCC(=O)O)C(=O)O)cc1)CN2 (stereo partly shown) [d, 1-tetrahydrofolic acid]",competition for PGA binding sites,hog kidney folate binder,high degree of competition
"Nc1nc2c(c(=O)[nH]1)NC(CN(C=O)c1ccc(C(=O)N[C@@H](CCC(=O)O)C(=O)O)cc1)CN2 (stereo partly shown) [N-10, formyltetrahydrofolic acid]",competition for PGA binding sites,hog kidney folate binder,high degree of competition
[Mg+2] [magnesium],effect on binding at any pH,hog kidney binder factor [1]; 5 mM,No effect
c1cnc2c(c1)ccc1cccnc12 [o-phenanthroline],effect on the binding reaction,hog kidney binder factor [1]; concentrations up to 2.0 × 10^-^6 M,no effect
"O=C(O)CN(CCN(CC(=O)O)CC(=O)O)CC(=O)O [EDTA, ethyldiamine tetraacetic acid]",effect on binding at any pH,hog kidney binder factor [1]; 20 mM,No effect
[Zn] [zinc],effect on binding at any pH,hog kidney binder factor [1]; 5 mM,No effect
N=C(N)N [guanidine hydrochloride],effect on folate binder complex after it had formed,hog kidney binder factor [1]; 6 M,could disrupt the complex
same,reversibility of the guanidine hydrochloride effect,hog kidney binder factor [1]; 6 M,nearly completely reversible
same,effect on binding activity of the binder composition,hog kidney binder factor [1]; 6 M,binding activity was lost
O=C(O)CC(O)(CC(=O)O)C(=O)O [citrate],effect on binding at any pH,hog kidney binder factor [1]; 10 mM,No effect
[Ca+2] [calcium],effect on binding at any pH,hog kidney binder factor [1]; 5 mM,No effect
NC(N)=O [urea],effect on folate binder complex after it had formed,hog kidney binder factor [1]; 8 M,no effect
same,effect on binding activity of the binder composition,hog kidney binder factor [1]; 8 M,binding activity was lost
"CN(Cc1cnc2nc(N)nc(N)c2n1)c1ccc(C(=O)N[C@@H](CCC(=O)O)C(=O)O)cc1 [^3 H-MTX, ^3 H-methotrexate]",binding affinity less than that of 3H-PGA,"hog kidney binder; direct binding, 3H-MTX 13 Ci/mmole",at least 500 times
OCCS [2-mercaptoethanol],effect on the binding reaction,hog kidney binder factor [1]; concentrations of 10^-^7 to 10^-^1 M,no effect
"CN1c2c(nc(N)[nH]c2=O)NCC1CNc1ccc(C(=O)N[C@@H](CCC(=O)O)C(=O)O)cc1 (stereo partly shown) [5CH3 FH4, d,1,5-methyltetrahydrofolic acid]",amount required to achieve 50% inhibition of 3H-PGA binding,"hog kidney folate binder; FIG. 6A, 0.225 pmoles 3H-PGA, pH 7.6, total volume 1.0 ml, 30 min room temperature",about 0.32 pmoles
same,tightness of binding of the hog kidney binder factor with PGA and 5CH3 FH4,hog kidney binder factor [2],approximately equal
same,stability of stock solution,"storage stability; approximately 5 micrograms per ml, 0.1 M 2-mercaptoethanol, pH 7.6, -80°C",at least 6 months
^3 H-pteroylmonoglutamate [^3 H-PGA],initial rate of binding,hog kidney binder factor [3]; 4°C,about 0.65 % per second
same,initial rate of binding,hog kidney binder factor [3]; 21°C,1.3 % per second
same,initial rate of binding,hog kidney binder factor [3]; 37°C,2.5 % per second
same,disassociation of the 3H-PGA binder complex,"hog kidney binder factor [3]; one hour at 37°C, 50-fold excess of unlabeled PGA",no significant disassociation
same,stability,storage stability,unstable
[14CH3]N1c2c([nH]c(N)nc2=O)NCC1CNc1ccc(C(=O)N[C@@H](CCC(=O)O)C(=O)O)cc1 (stereo partly shown) [^14 C--5CH3 FH4],binding results compared with those obtained with 3H-PGA,hog kidney binder,essentially the same
same,"bound by the extract, of the available labeled folate",hog kidney binder,more than 90%
"RNase: RNase (Worthington) (protein, UniProt P61823 27-150, looked up) Ribonuclease pancreatic: KETAAAKFERQHMDSSTSAASSSNYCNQMMKSRNLTKDRCKPVNTFVHESLADVQAVCSQKNVACKNGQTNCYQSYSTMSITDCRETGSSKYPNCAYKTTQANKHIIVACEGNPYVPVHFDASV",effect of preincubation on binding of 3H-PGA,"hog kidney binder factor [1]; 2 micrograms per ml, 30 minutes at 37°C",no effect
"trypsin: solution of trypsin (protein, UniProt P00760 24-246, looked up) Serine protease 1: IVGGYTCGANTVPYQVSLNSGYHFCGGSLINSQWVVSAAHCYKSGIQVRLGEDNINVVEGNEQFISASKSIVHPSYNSNTLNNDIMLIKLKSAASLNSRVASISLPTSCASAGTQCLISGWGNTKSSGTSYPDVLKCLKAPILSDSSCKSAYPGQITSNMFCAGYLEGGKDSCQGDSGGPVVCSGKLQGIVSWGSGCAQKNKPGVYTKVCNYVSWIKQTIASN",effect of preincubation with trypsin on hog binder factor,"hog kidney binder factor [1]; 1.0 ml trypsin solution, 30 minutes",completely inactivated
same,inactivation of other binder factors by trypsin,All other binder factors,inactivated
